The term melting point denotes the temperature, or range, at which the solid turns liquid.

Where only a bound is given, the exact number is not on record here.

For `Cn1cnc2c(Nc3ccc(Cl)cc3)nc(-c3ccccn3)nc21`, the melting point is 185 to 190 °C.

Consider `O=c1[nH]c(=O)c2cccnc2[nH]1`, for which the melting point worked out at 360 °C.

The compound `NC(=O)c1ncn2c(=O)n(Cc3ccccc3)nnc12` had a melting point of 187 to 188 °C.

`COC(=O)COc1c(Cl)cc(Cl)c(C#N)c1Cl` registered a melting point of 110 to 112 °C. As for `CCCn1c(=O)c2[nH]c(-c3cc(C)n(CC(=O)Nc4ccc(C)cc4)n3)nc2n(CCC)c1=O`, the figure is above 300 °C. The value for `CCC(CC)Oc1cc(C)nc(Nc2c(C)cc(C)cc2C)c1` was 98 to 100 °C; that for `Cc1cccc(Nc2ncnc3ccc(CSc4nc5ccccc5[nH]4)cc23)c1` was 123 to 129 °C; that for `Cc1c(NC(=O)c2ccc(-c3ccc(F)cc3)cc2)ccc2cc(CN3CCCC3C3CCCCC3)cnc12` (centres undefined) was 204 to 205 °C.

Consider `CCCCc1ccc(C#Cc2ccc(Br)cc2)cc1`, for which the melting point lay in the range of 75.6 to 76.1 °C. The value for `c1ccc(C(c2ccccc2)N2CCN(Cc3cscn3)CC2)cc1` was 114 to 116 °C; that for `CC(C)(C)C(=O)Nc1nc(Cl)c2ccnc-2[nH]1` was above 210 °C. `CC1(N)CN=CC=C1N` (centres undefined) displayed a melting point of 163 to 165 °C. As for `COC(=O)c1ccc(CC(C)NCC(O)c2ccc(Cl)cc2)cc1` (centres undefined), the figure is 134 to 135 °C; as for `Cc1nc(N2CCN(Cc3ccc(F)cc3)C2=O)sc1C(=O)NCc1ncccn1`, 205 to 207 °C; as for `CC(=Nc1ccccc1)NC(=S)NCc1cccnc1`, 143 to 144 °C. As for `O=C1CC(c2cccc(-n3cnnc3)c2)=Nc2ccc(-c3ccccc3F)cc2N1`, the figure is 198 °C; as for `O=c1[nH]c(=Cc2ccc(OCc3ccccc3)cn2)c(=O)[nH]c1=Cc1ccccc1`, 223 to 225 °C. As for `Cc1ccc(O)c(Cn2c(NCCCN3CCOCC3)nc3ccc(CNc4c(C)cc(CCC#N)cc4C)cc32)n1`, the figure is 114 °C. Compound `COC(=O)c1cc2cc(OC)c(OC)cc2c(C)c1C(=O)OC` registered a melting point of 142 to 144 °C. The compound `[N-]=[N+]=Nc1ccc(S(=O)(=O)NCCc2ccc(CCO)cc2)cc1` showed a melting point of 80 to 82 °C. The value for `CCN1C(=O)CC2(CC(=O)N(Cc3ccccc3)C2)C1=O` (centres undefined) was 125 to 126 °C. As for `CSc1nc(Cl)c([N+](=O)[O-])c(N2CCS(=O)CC2)n1`, the figure is 176 to 178 °C. The value for `COC(=O)c1ccc(NC(=O)OCc2ccccc2)c(Cl)c1` was 108 °C; that for `CCNC(=O)Nc1ncc(-c2ccncc2)cn1` was 241 to 246 °C; that for `CS(=O)(=O)c1ccc(C(=O)N2CCNC2=Nc2c(Cl)cccc2Cl)cc1` was 240 to 244 °C. In turn, `Cc1ccc(S(=O)(=O)n2ccnc2C(O)(c2ccccc2)c2ccccc2Cl)cc1` (centres undefined) displayed a melting point of 165 to 167 °C.

`O=C(O)c1cccc(OCC(=O)C23CC4CC(CC(C4)C2)C3)c1` came in with a melting point of 156 °C. As for `C=CCc1ccc(C(=O)CCC(=O)OC)cc1O`, the figure is 90 to 92.5 °C; as for `O=C(O)CS(=O)(=O)CCCCCCn1nc(-c2ccccc2)c(-c2ccccc2)c1-c1ccccc1`, 154 to 155 °C. As to `O=C(Oc1ccc(OC(=O)c2cc(O)c(O)c(O)c2)c(-c2ccccc2)c1)c1cc(O)c(O)c(O)c1`, the melting point was 114 to 116 °C. As for `O=C(O)c1ccc(OCc2ccc(F)cc2)cc1`, the figure is 109 to 110 °C; as for `CCCCCCC(=O)NCCO`, 91 to 93 °C. As for `Cc1sccc1C(=O)O`, the figure is 71 to 73 °C; as for `COc1ccc(C(=O)Nc2ccc(C(=O)Cl)c3ccccc23)cc1OC`, 167 to 171 °C; as for `CC(C)CC(CP(=O)(O)CNCCc1ccccc1)C(=O)N(c1ccc(-c2ccccc2)cc1)[C@@H](C)C(=O)O` (some centres undefined), 229 to 230 °C. As for `CC(=O)ON=Cc1cccc2c1C=Cc1ccccc1S2`, the figure is 144 to 145 °C; as for `CCn1c(=O)c2c(nc(/C=C/c3ccc(OCOC)c(OC)c3)n2C)n(CC)c1=O`, 179 to 181 °C. `CC(C)(C)OC(=O)C(C)(C)Oc1ccc(N)cc1` yielded a melting point of 87 to 88 °C.

Compound `CC(O)C#Cc1cccc(NC(=O)Nc2ncc(C(C)C)s2)c1` (centres undefined) registered a melting point of 71 to 73 °C. The value for `Clc1ccc(-c2c(-c3ccccc3)nn3ccccc23)nn1` was 206 °C; that for `O=C(NC1CCC(Oc2ccc(F)cc2)CC1)NC12CC3CC(CC(C3)C1)C2` (centres undefined) was 243 °C. The value for `C=C(C)C(=O)Nc1cccc(OC(=O)Nc2cccc3ccccc23)c1` was 195 to 196 °C; that for `O=C(Nc1ccc(OC(F)F)cc1)N1N=C(c2ccc(Cl)cc2)CC1c1ccc(Cl)cc1` (centres undefined) was 174 °C; that for `CN(CCOc1cc(-c2ccc(O)cc2)nn1C)CCc1ccc(Cl)cc1` was 90 to 91 °C. The value for `O=C1c2ccccc2C(=O)N1OC/C=C/C=C/c1ccc(F)cc1` was 155 to 157 °C; that for `OC(CCc1ccc2ccccc2c1)Cn1ccnc1` (centres undefined) was 122 to 124 °C; that for `CC(=O)c1c(S(=O)(=O)C(F)(F)F)c(C#N)nn1-c1c(Cl)cc(C(F)(F)F)cc1Cl` was 161 °C. `CC(C)(C)OC(=O)Cn1c(C(=O)OCc2ccccc2)cc2cnccc21` came in with a melting point of 94 °C. The compound `CCCCCCCN(CCN1CCN(CCSc2nc3c(C)c(Cl)cc(C(C)C)c3o2)CC1)C(=O)Nc1c(C(C)C)cc(O)cc1C(C)C` returned a melting point of 138 to 140 °C. As for `O=C(O)c1cn(-c2cc(O)c(F)cc2[N+](=O)[O-])c2c(Cl)c(F)c(F)cc2c1=O`, the figure is 248 to 255 °C.

On to `O=C(Nc1c(Cl)ccc2nc(N3CCNCC3)ccc12)C1(C2CCCCC2)CC1`, for which the melting point stood at 219 °C.

Turning to `CN(C)CCC1CCC2(CC1)Nc1ccc(Cl)cc1S(=O)(=O)N2` (centres undefined), the melting point lay in the range of 234 to 235 °C.

`COc1cc(Cl)ccc1N(Cc1cccnc1)S(C)(=O)=O` displayed a melting point of 121 to 123 °C. As for `CCc1nc2ccccc2c(N)c1C(C)=O`, the figure is 145 to 148 °C; as for `C=CCOc1ccc(C(=O)Oc2ccc3ccc(OC(=O)C(=C)C)cc3c2)cc1`, 85 °C; as for `COc1nc2cc(F)cc(CBr)c2nc1OC`, 122 to 125 °C. The value for `CC(C)N1CCc2ccc(NC(=N)c3cccs3)cc2C1` was 110 to 111 °C. As for `Cc1ccc(C)c(S(=O)(=O)Nc2onc(C)c2Br)c1`, the figure is 102 to 104 °C; as for `CCN(CC)CCn1c(=Nc2ccccc2)sc2ncccc2c1=O`, 61 to 62 °C. As for `Cn1nnc(-c2ccc(C=Cc3ccc(-c4nc5ccccc5o4)cc3)cc2)c1C#N`, the melting point lay within 264 to 266 °C. As for `O=C(O)C1CN(CCCS(=O)(=O)O)CCN1` (centres undefined), the figure is 190 to 191 °C; as for `CCCc1nc2c(N)nc3ccccc3c2n1CCCCN(OC)C(C)=O`, 138 to 140 °C; as for `CC(C)C(C)(NC(=O)c1nc2ccccc2cc1C(=O)O)C(N)=O` (centres undefined), 172 to 174 °C. As for `COC(=O)CN(C)c1cccc(-c2ccc(Cl)cc2)n1`, the figure is 54 °C; as for `O=C1NC(=O)C(=Cc2cc(O)c(O)c(Cl)c2)S1`, 299 to 301 °C. The value for `O=CN1c2ccccc2N(Cc2ccccc2)CC1CN1CCCC1` (centres undefined) was 94 to 96 °C. Turning to `COc1ccc(C(O)(CC(=O)N2CCOCC2)c2ccc(Cl)cc2)cc1OC` (centres undefined), the melting point is 150 °C. As for `CC(O)c1cccc(Cl)c1Cl` (centres undefined), the melting point was determined as 53 °C. The value for `N=C(N)Nc1nc(CCCCNc2ncc(Cc3ccc(Cl)cc3)c(=O)[nH]2)cs1` was 200 to 205 °C; that for `N#CC(c1ccccc1)(c1ccccc1)[C@H]1CCCN(CCc2ccccc2)C1` was 134 to 138 °C.

In the case of `CN(C(=O)Cc1cccc2ccccc12)C1c2ccccc2CC1N1CCCC1` (centres undefined), the melting point turned out to be 127 °C. The value for `O=c1ccn(-c2cccc(C(F)(F)F)c2)nc1-c1ccnn1-c1ccccn1` was 189 to 190 °C. Turning to `Cc1ccnc2c1nc(COc1ccc(CC3SC(=O)NC3=O)cc1)n2C` (centres undefined), the melting point was 205 to 207 °C.

In turn, `CCOC(=O)[C@H](Cc1ccc([N+](=O)[O-])cc1I)NC(=O)OCc1ccccc1` displayed a melting point of 85 to 87 °C. As for `Clc1ccc(-n2cc(-c3n[nH]c4ccccc34)nn2)cn1`, the figure is 272 to 280 °C; as for `Cc1cc(-c2ccco2)ccc1-c1cc(C(F)(F)F)nn1-c1ccc(S(C)(=O)=O)cc1`, 175 to 177 °C. As for `CCc1cc(OC)c(S(C)(=O)=O)cc1C(=O)N=C(N)N`, the figure is 192 to 195 °C; as for `O=[N+]([O-])c1ccc(N2CCN(Cc3ccccc3)CC2)cc1CS(=O)(=O)c1ccccc1`, 145 to 146 °C; as for `O=C(Nc1ccc(OCCCN2CCNCC2)c2ccccc12)c1cc(F)cc(N2CCCCC2)c1`, 70 to 72 °C.

Turning to `Cc1ccc(S(=O)(=O)OCC2COc3ccc([N+](=O)[O-])c(C=CC=O)c3O2)cc1` (centres undefined), the melting point fell in the range of 138 to 140 °C. Compound `CCOC(=O)c1cc2ccccc2n1-c1ccc(OC)c(OC)c1` yielded a melting point of 126 to 128 °C. Compound `Cc1cccc(-c2nc(C)cc(NC3CCCCC3)n2)n1` returned a melting point of 59.6 to 65 °C.

`Cc1cc(NC(=O)C2=C(O)c3ccsc3S(=O)(=O)C2)no1` yielded a melting point of 209 to 210 °C. The value for `CCCC1(S(=O)(=O)CCCN2CCN(C)CC2)C(=O)N(S(=O)(=O)c2ccc3ccccc3c2)C2CCNC21` (centres undefined) was 186 to 187 °C; that for `CCOC(=O)c1cn(N2CCOCC2)c2ccc(CN3CCOCC3)cc2c1=O` was 209 to 211 °C; that for `COc1c(C)cc([N+](=O)[O-])cc1C(=S)N(C)C` was 138 to 139 °C. The value for `Cn1cc(S(=O)(=O)NC(C)(C)C)cc1C=O` was 97 to 98 °C. In the case of `CC12CCC(=O)C=C1C(=O)CC1C2CCC2(C)C(c3cccnc3)=CCC12` (centres undefined), the melting point lay within 210 to 212 °C.

`CCCn1cc(C(=O)OCC)c(=O)c2cc(CN3CCOCC3)oc21` had a melting point of 195 to 196 °C.

For the origin of these results see a melting point compilation (Tetko et al.; mined from patent text by program, amines drawn as free bases though some values may be those of a salt).
